# Test results published in ChEMBL document CHEMBL1122817, “Synthesis and biological activity of substituted [[3(S)-(acylamino)-2-oxo-1-azetidinyl]oxy]acetic acids. A new class of heteroatom-activated beta-lactam antibiotics” (1985).
# How the values were obtained:
# Escherichia coli [1] = test: Inhibitory activity against Escherichia coli X580 at 1 mg/mL concentration using Agar disk plate assay; type: functional
# Escherichia coli [2] = test: Inhibitory activity against Escherichia coli X161 at 1 mg/mL concentration using Agar disk plate assay; type: functional
# Escherichia coli [3] = test: Inhibitory activity against Escherichia coli X161M at 1 mg/mL concentration using Agar disk plate assay; type: functional
# Proteus vulgaris [4] = test: Inhibitory activity against Proteus vulgaris X45 at 1 mg/mL concentration using Agar disk plate assay; type: functional
# [5] = tested on: Salmonella enterica subsp. enterica serovar Gallinarum; test: Inhibitory activity against Salmonella gallinarum X142 at 1 mg/mL concentration using Agar disk plate assay; type: functional
# Serratia marcescens [6] = test: Inhibitory activity against Serratia marcescens X99 at 1 mg/mL concentration using Agar disk plate assay; type: functional
# [7] = tested on: Acinetobacter calcoaceticus; test: Minimum inhibitory concentration against Acinetobacter calcoaceticus AC12; type: functional
# [8] = tested on: Geobacillus stearothermophilus; test: Inhibitory activity against Bacillus Stearothermophilus C451 at 1 mg/mL concentration using Agar disk plate assay; type: functional
# [9] = tested on: Geobacillus stearothermophilus; test: Inhibitory activity against Bacillus Stearothermophilus C451 at 10 mg/mL concentration using Agar disk plate assay; type: functional
# Bacillus subtilis [10] = test: Inhibitory activity against Bacillus Subtilis X12 at 10 mg/mL concentration using Agar disk plate assay; type: functional
# Bacillus subtilis [11] = test: Inhibitory activity against Bacillus Subtilis X12 at 1 mg/mL concentration using Agar disk plate assay; type: functional
# Bacillus subtilis [12] = test: Inhibitory activity against Bacillus Subtilis X12M at 10 mg/mL concentration using Agar disk plate assay; type: functional
# Bacillus subtilis [13] = test: Inhibitory activity against Bacillus Subtilis X12M at 1 mg/mL concentration using Agar disk plate assay; type: functional
# Citrobacter freundii = test: Minimum inhibitory concentration against Citrobacter freundii CF17; type: functional
# Escherichia coli [14] = test: Minimum inhibitory concentration against Escherichia coli N10; type: functional
# Escherichia coli [15] = test: Minimum inhibitory concentration against Escherichia coli TEM; type: functional
# Klebsiella aerogenes [16] = test: Minimum inhibitory concentration against Enterobacter aerogenes C32; type: functional
# Escherichia coli [17] = test: Inhibitory activity against Escherichia coli X580 at 10 mg/mL concentration using Agar disk plate assay; type: functional
# Escherichia coli [18] = test: Inhibitory activity against Escherichia coli X161 at 10 mg/mL concentration using Agar disk plate assay; type: functional
# Escherichia coli [19] = test: Inhibitory activity against Escherichia coli X161M at 10 mg/mL concentration using Agar disk plate assay; type: functional
# Enterobacter cloacae [20] = test: Minimum inhibitory concentration against Enterobacter cloacae 265A; type: functional
# Enterobacter cloacae [21] = test: Minimum inhibitory concentration against Enterobacter cloacae EB5; type: functional
# Haemophilus influenzae [22] = test: Minimum inhibitory concentration against Haemophilus influenza 76; type: functional
# Haemophilus influenzae [23] = test: Minimum inhibitory concentration against Haemophilus influenza C.L; type: functional
# Klebsiella pneumoniae [24] = test: Minimum inhibitory concentration against Klebsiella pneumoniae KAE; type: functional
# Klebsiella pneumoniae [25] = test: Minimum inhibitory concentration against Klebsiella pneumoniae X26; type: functional
# Klebsiella pneumoniae [26] = test: Minimum inhibitory concentration against Klebsiella pneumoniae X68; type: functional
# Morganella morganii = test: Minimum inhibitory concentration against Proteus morganii PR15; type: functional
# Pseudomonas aeruginosa [27] = test: Minimum inhibitory concentration against Pseudomonas aeruginosa (4 strains); type: functional
# Proteus vulgaris [28] = test: Inhibitory activity against Proteus vulgaris X45 at 10 mg/mL concentration using Agar disk plate assay; type: functional
# Pseudomonas aeruginosa [29] = test: Inhibitory activity against Pseudomonas aeruginosa X48 at 10 mg/mL concentration using Agar disk plate assay; type: functional
# Ralstonia solanacearum [30] = test: Inhibitory activity against Pseudomonas solanacearum X185 at 10 mg/mL concentration using Agar disk plate assay; type: functional
# Ralstonia solanacearum [31] = test: Inhibitory activity against Pseudomonas solanacearum X185 at 1 mg/mL concentration using Agar disk plate assay; type: functional
# Proteus inconstans = test: Minimum inhibitory concentration against Proteus inconstans PR33; type: functional; conditions: Providencia alcalifaciens
# Providencia rettgeri = test: Minimum inhibitory concentration against Proteus rettgeri C24; type: functional
# Salmonella typhi [32] = test: Minimum inhibitory concentration against Salmonella typhi 1335; type: functional, Salmonella enterica subsp. enterica serovar Typhi; conditions: Salmonella enterica
# Salmonella typhi [33] = test: Minimum inhibitory concentration against Salmonella typhi X514; type: functional, Salmonella enterica subsp. enterica serovar Typhi; conditions: Salmonella enterica
# Micrococcus luteus [34] = test: Inhibitory activity against Sarcina lutea X186 at 10 mg/mL concentration using Agar disk plate assay; type: functional
# [35] = tested on: Salmonella enterica subsp. enterica serovar Gallinarum; test: Inhibitory activity against Salmonella gallinarum X142 at 10 mg/mL concentration using Agar disk plate assay; type: functional
# Serratia marcescens [36] = test: Minimum inhibitory concentration against Serratia marcescens SE3; type: functional
# Micrococcus luteus [37] = test: Inhibitory activity against Sarcina lutea X186 at 1 mg/mL concentration using Agar disk plate assay; type: functional
# Staphylococcus aureus [38] = test: Inhibitory activity against Staphylococcus aureus X1 at 10 mg/mL concentration using Agar disk plate assay; type: functional
# Serratia marcescens [39] = test: Inhibitory activity against Serratia marcescens X99 at 10 mg/mL concentration using Agar disk plate assay; type: functional
# [40] = tested on: Staphylococcus epidermidis; test: Minimum inhibitory concentration against Staphylococcus epidermidis (2 strains); type: functional
# Streptococcus pyogenes = test: Minimum inhibitory concentration against Streptococcus pyogenes C203; type: functional
# Streptococcus pneumoniae = test: Minimum inhibitory concentration against Streptococcus pneumoniae Park I; type: functional
# Streptococcus = test: Minimum inhibitory concentration against Streptococcus sp. Group D (2 strains); type: functional
# Staphylococcus aureus [41] = test: Minimum inhibitory concentration against Staphylococcus aureus (4 strains); type: functional
# Klebsiella aerogenes [42] = test: Minimum inhibitory concentration against Enterobacter aerogenes EB 17; type: functional
# Escherichia coli [43] = test: Minimum inhibitory concentration against Escherichia coli EC14; type: functional
# Serratia marcescens [44] = test: Minimum inhibitory concentration against Serratia marcescens X99; type: functional
smiles,measurement,setting,value
CO/N=C(/C(=O)N[C@@H]1C(=O)N(O[C@H](OC(C)=O)C(=O)[O-])[C@H]1C)c1csc(N)n1.[K+],Zone of inhibition,Escherichia coli [1],38 mm
same,Zone of inhibition,Escherichia coli [2],26 mm
same,Zone of inhibition,Escherichia coli [3],28 mm
same,Zone of inhibition,Proteus vulgaris [4],25 mm
same,Zone of inhibition,[5],17 mm
same,Zone of inhibition,Serratia marcescens [6],18 mm
CO/N=C(\C(=O)N[C@@H]1C(=O)N(O[C@H](OC(C)=O)C(=O)[O-])[C@H]1C)c1csc(N)n1.[K+],Zone of inhibition,Escherichia coli [1],46 mm
same,Zone of inhibition,Escherichia coli [2],17 mm
same,Zone of inhibition,Escherichia coli [3],30 mm
same,Zone of inhibition,Proteus vulgaris [4],28 mm
same,Zone of inhibition,[5],25 mm
same,Zone of inhibition,Serratia marcescens [6],24 mm
CO/N=C(/C(=O)N[C@@H]1C(=O)N(S(=O)(=O)[O-])[C@H]1C)c1csc(N)n1.[K+],MIC,[7],4 µg/mL
same,Zone of inhibition,[8],25 mm
same,Zone of inhibition,[9],30 mm
same,Zone of inhibition,Bacillus subtilis [10],23 mm
same,Zone of inhibition,Bacillus subtilis [11],15 mm
same,Zone of inhibition,Bacillus subtilis [12],30 mm
same,Zone of inhibition,Bacillus subtilis [13],16 mm
same,MIC,Citrobacter freundii,0.25 µg/mL
same,MIC,Escherichia coli [14],0.125 µg/mL
same,MIC,Escherichia coli [15],0.125 µg/mL
same,MIC,Klebsiella aerogenes [16],0.125 µg/mL
same,Zone of inhibition,Escherichia coli [17],66 mm
same,Zone of inhibition,Escherichia coli [1],54 mm
same,Zone of inhibition,Escherichia coli [18],40 mm
same,Zone of inhibition,Escherichia coli [2],40 mm
same,Zone of inhibition,Escherichia coli [19],54 mm
same,Zone of inhibition,Escherichia coli [3],40 mm
same,MIC,Enterobacter cloacae [20],> 64 µg/mL
same,MIC,Enterobacter cloacae [21],0.125 µg/mL
same,MIC,Haemophilus influenzae [22],0.25 µg/mL
same,MIC,Haemophilus influenzae [23],0.5 µg/mL
same,MIC,Klebsiella pneumoniae [24],> 64 µg/mL
same,MIC,Klebsiella pneumoniae [25],0.06 µg/mL
same,MIC,Klebsiella pneumoniae [26],0.125 µg/mL
same,MIC,Morganella morganii,0.25 µg/mL
same,MIC,Pseudomonas aeruginosa [27],> 64 µg/mL
same,Zone of inhibition,Proteus vulgaris [28],46 mm
same,Zone of inhibition,Proteus vulgaris [4],40 mm
same,Zone of inhibition,Pseudomonas aeruginosa [29],25 mm
same,Zone of inhibition,Ralstonia solanacearum [30],40 mm
same,Zone of inhibition,Ralstonia solanacearum [31],29 mm
same,MIC,Proteus inconstans,0.03 µg/mL
same,MIC,Providencia rettgeri,0.03 µg/mL
same,MIC,Salmonella typhi [32],0.125 µg/mL
same,MIC,Salmonella typhi [33],0.06 µg/mL
same,Zone of inhibition,Micrococcus luteus [34],27 mm
same,Zone of inhibition,[35],36 mm
same,Zone of inhibition,[5],48 mm
same,MIC,Serratia marcescens [36],0.25 µg/mL
same,Zone of inhibition,Micrococcus luteus [37],25 mm
same,Zone of inhibition,Staphylococcus aureus [38],22 mm
same,Zone of inhibition,Serratia marcescens [39],40 mm
same,MIC,[40],> 64 µg/mL
same,Zone of inhibition,Serratia marcescens [6],33 mm
same,MIC,Streptococcus pyogenes,4 µg/mL
same,MIC,Streptococcus pneumoniae,4 µg/mL
same,MIC,Streptococcus,> 64 µg/mL
same,MIC,Staphylococcus aureus [41],> 64 µg/mL
same,MIC,Klebsiella aerogenes [42],0.125 µg/mL
same,MIC,Escherichia coli [43],0.06 µg/mL
same,MIC,Serratia marcescens [44],0.25 µg/mL
CO/N=C(/C(=O)N[C@H]1CN(OCC(=O)[O-])C1=O)c1csc(N)n1.[K+],MIC,[7],> 64 µg/mL
same,Zone of inhibition,[9],24 mm
same,Zone of inhibition,Bacillus subtilis [12],13 mm
same,MIC,Citrobacter freundii,16 µg/mL
same,MIC,Escherichia coli [14],8 µg/mL
same,MIC,Escherichia coli [15],32 µg/mL
same,MIC,Klebsiella aerogenes [16],8 µg/mL
same,Zone of inhibition,Escherichia coli [17],37 mm
same,Zone of inhibition,Escherichia coli [18],20 mm
same,Zone of inhibition,Escherichia coli [19],19 mm
same,MIC,Enterobacter cloacae [20],> 64 µg/mL
same,MIC,Enterobacter cloacae [21],16 µg/mL
same,MIC,Haemophilus influenzae [22],16 µg/mL
same,MIC,Haemophilus influenzae [23],16 µg/mL
same,MIC,Klebsiella pneumoniae [24],> 64 µg/mL
same,MIC,Klebsiella pneumoniae [25],8 µg/mL
same,MIC,Klebsiella pneumoniae [26],8 µg/mL
same,MIC,Morganella morganii,32 µg/mL
same,MIC,Pseudomonas aeruginosa [27],> 64 µg/mL
same,Zone of inhibition,Proteus vulgaris [28],21 mm
same,Zone of inhibition,Ralstonia solanacearum [30],16 mm
same,MIC,Proteus inconstans,2 µg/mL
same,MIC,Providencia rettgeri,2 µg/mL
same,MIC,Salmonella typhi [32],8 µg/mL
same,MIC,Salmonella typhi [33],4 µg/mL
same,Zone of inhibition,Micrococcus luteus [34],21 mm
same,Zone of inhibition,[35],22 mm
same,MIC,Serratia marcescens [36],16 µg/mL
same,Zone of inhibition,Serratia marcescens [39],16 mm
same,MIC,[40],> 64 µg/mL
same,MIC,Streptococcus pyogenes,16 µg/mL
same,MIC,Streptococcus pneumoniae,32 µg/mL
same,MIC,Streptococcus,> 64 µg/mL
same,MIC,Staphylococcus aureus [41],> 64 µg/mL
same,MIC,Klebsiella aerogenes [42],8 µg/mL
same,MIC,Escherichia coli [43],4 µg/mL
same,MIC,Serratia marcescens [44],16 µg/mL
